Laboratory results as given in PubChem BioAssay AID256 (DTP/NCI, 2004).
Inconclusive results and toxic doses are left out. Rule for the calls: active = survival T/C of 150% or more; inactive = T/C below 125% in these data.

Tested on: CD2F1 mice, L1210 leukemia ip, survival T/C
Assay: NCI In Vivo Anticancer Drug Screen. Data for tumor model L1210 Leukemia (intraperitoneal) in CD2F1 (CDF1) mice
Conditions: higher = longer survival
Summary of the method: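 Tumor-bearing mice (transplanted tumor) were split into treated and vehicle control groups, and the measured endpoint of each treated group was divided by that of its vehicle controls.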

[1] = endpoint: mean survival time, dose: 100.0 mg/kg/injection, schedule: Q01DX009 (ip), vehicle: saline with Tween-80
[2] = endpoint: mean survival time, dose: 200.0 mg/kg/injection, schedule: Q01DX009 (ip), vehicle: saline with Tween-80
[3] = endpoint: mean survival time, dose: 400.0 mg/kg/injection, schedule: Q01DX009 (ip), vehicle: saline with Tween-80
[4] = endpoint: mean survival time, dose: 100.0 mg/kg/injection, schedule: Q04DX002 (ip), vehicle: saline with Tween-80
[5] = endpoint: mean survival time, dose: 200.0 mg/kg/injection, schedule: Q04DX002 (ip), vehicle: saline with Tween-80
[6] = endpoint: mean survival time, dose: 400.0 mg/kg/injection, schedule: Q04DX002 (ip), vehicle: saline with Tween-80
[7] = endpoint: mean survival time, dose: 100.0 mg/kg/injection, schedule: Q01DX001 (ip), vehicle: saline with Tween-80
[8] = endpoint: mean survival time, dose: 200.0 mg/kg/injection, schedule: Q01DX001 (ip), vehicle: saline with Tween-80
[9] = endpoint: mean survival time, dose: 400.0 mg/kg/injection, schedule: Q01DX001 (ip), vehicle: saline with Tween-80

Measured: T/C

CS(=O)(=O)Nc1ccc(CC#N)cc1
inactive: [1] 98 % of control | endpoint: mean survival time, dose: 100.0 mg/kg/injection, schedule: Q04DX003 (ip), vehicle: saline with Tween-80 101 % of control | [2] 101 % of control | endpoint: mean survival time, dose: 200.0 mg/kg/injection, schedule: Q04DX003 (ip), vehicle: saline with Tween-80 107 % of control | [3] 102 % of control | endpoint: mean survival time, dose: 400.0 mg/kg/injection, schedule: Q04DX003 (ip), vehicle: saline with Tween-80 109 % of control

Cc1cc(C)nc(NC(=S)N/N=C/c2ccc(O)cn2)n1
inactive: [4] 87 % of control | [5] 91 % of control | [6] 91 % of control

c1ccc2c(c1)ccc1c(C3CO3)cccc12 (stereo not given)
inactive: endpoint: mean survival time, dose: 100.0 mg/kg/injection, schedule: Q01DX005 (ip), vehicle: saline with Tween-80 103 % of control | [1] 93 % of control | endpoint: mean survival time, dose: 200.0 mg/kg/injection, schedule: Q01DX005 (ip), vehicle: saline with Tween-80 106 % of control | [2] 101 % of control | endpoint: mean survival time, dose: 400.0 mg/kg/injection, schedule: Q01DX005 (ip), vehicle: saline with Tween-80 95 % of control | [3] 101 % of control

Cc1ccccc1NC(=O)Oc1c(C)cccc1C
inactive: [4] 97 % of control | [5] 101 % of control | [6] 101 % of control

CCOC(=O)c1cnc(SC)nc1NCc1cccc(C)c1
inactive: [7] 98 % of control | [8] 96 % of control | [9] 91 % of control

CC(C)(C)CC(C)(C)c1ccc(OCCOc2ccccc2NC(=O)c2ccc3ccccc3c2O)cc1
inactive: [1] 94 % of control | [2] 93 % of control | [3] 94 % of control

CC(=O)OCC1OC(n2ccc(=O)[nH]c2=O)CC1N=[N+]=[N-] (stereo not given)
inactive: endpoint: median survival time, dose: 12.5 mg/kg/injection, schedule: Q01DX005 (ip), vehicle: saline with Tween-80 104 % of control | endpoint: median survival time, dose: 25.0 mg/kg/injection, schedule: Q01DX005 (ip), vehicle: saline with Tween-80 107 % of control | endpoint: median survival time, dose: 50.0 mg/kg/injection, schedule: Q01DX005 (ip), vehicle: saline with Tween-80 104 % of control | endpoint: median survival time, dose: 100.0 mg/kg/injection, schedule: Q01DX005 (ip), vehicle: saline with Tween-80 101 % of control | endpoint: median survival time, dose: 200.0 mg/kg/injection, schedule: Q01DX005 (ip), vehicle: saline with Tween-80 106 % of control

C(=N\Nc1ccccc1)/c1ccccc1
inactive: [7] 107 % of control | endpoint: mean survival time, dose: 100.0 mg/kg/injection, schedule: Q04DX003 (ip), vehicle: Klucel (hydroxypropylcellulose) (HPC) 106 % of control | [8] 94 % of control | endpoint: mean survival time, dose: 200.0 mg/kg/injection, schedule: Q04DX003 (ip), vehicle: Klucel (hydroxypropylcellulose) (HPC) 98 % of control | [9] 100 % of control | endpoint: mean survival time, dose: 400.0 mg/kg/injection, schedule: Q04DX003 (ip), vehicle: Klucel (hydroxypropylcellulose) (HPC) 96 % of control
